In patent US20230141101A1, “PDE4 INHIBITOR COMPOUND AND MEDICAL USE THEREOF” (Suzhou Longbotai Pharmaceuticals Co., Ltd., priority 2020, published 2023):

Assays:
Assay type in all cases: biochemical
Details in all cases: 20 nM
PDE4A1A = biological target: T1, PDE4A1A (Homo sapiens, UniProt P27815); experiment: PDE4 inhibitory activity assay (FAM-cAMP enzymatic reaction), PDE4A1A
T1 construct: purchased BPS 60040
Method in brief: (§1)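 Each isoform is incubated with test compound for 15 min at room temperature before FAM-cAMP substrate starts a 30-min reaction.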

PDE4B1 = biological target: T2, PDE4B1 (Homo sapiens, UniProt Q07343); experiment: PDE4 inhibitory activity assay (FAM-cAMP enzymatic reaction), PDE4B1
T2 construct: purchased BPS 60041
T2 sequence (Q07343 whole entry): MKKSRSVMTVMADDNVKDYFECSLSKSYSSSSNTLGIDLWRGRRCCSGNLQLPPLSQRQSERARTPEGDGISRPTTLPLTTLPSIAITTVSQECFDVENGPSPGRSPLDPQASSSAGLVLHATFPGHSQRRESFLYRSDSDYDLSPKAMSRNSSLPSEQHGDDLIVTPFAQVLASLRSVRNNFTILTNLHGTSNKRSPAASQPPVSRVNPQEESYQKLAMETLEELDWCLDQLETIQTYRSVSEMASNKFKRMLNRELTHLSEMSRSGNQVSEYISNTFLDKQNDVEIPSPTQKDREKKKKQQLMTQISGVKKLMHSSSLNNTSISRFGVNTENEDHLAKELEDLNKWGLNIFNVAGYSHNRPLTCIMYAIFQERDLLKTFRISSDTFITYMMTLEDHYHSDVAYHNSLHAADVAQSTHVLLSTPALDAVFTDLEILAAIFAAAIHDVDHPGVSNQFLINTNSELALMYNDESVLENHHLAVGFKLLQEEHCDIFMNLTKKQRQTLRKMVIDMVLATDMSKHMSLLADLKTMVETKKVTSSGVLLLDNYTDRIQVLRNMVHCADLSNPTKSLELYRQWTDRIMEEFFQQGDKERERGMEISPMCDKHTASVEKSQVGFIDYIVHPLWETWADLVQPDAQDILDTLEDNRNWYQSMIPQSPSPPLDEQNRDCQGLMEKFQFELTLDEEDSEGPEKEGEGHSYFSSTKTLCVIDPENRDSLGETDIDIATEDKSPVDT
Method in brief: as §1

PDE4D2 = PDE4D2 (Homo sapiens, UniProt Q08499); experiment: PDE4 inhibitory activity assay (FAM-cAMP enzymatic reaction), PDE4D2
PDE4D2, sequence (Q08499 303-809): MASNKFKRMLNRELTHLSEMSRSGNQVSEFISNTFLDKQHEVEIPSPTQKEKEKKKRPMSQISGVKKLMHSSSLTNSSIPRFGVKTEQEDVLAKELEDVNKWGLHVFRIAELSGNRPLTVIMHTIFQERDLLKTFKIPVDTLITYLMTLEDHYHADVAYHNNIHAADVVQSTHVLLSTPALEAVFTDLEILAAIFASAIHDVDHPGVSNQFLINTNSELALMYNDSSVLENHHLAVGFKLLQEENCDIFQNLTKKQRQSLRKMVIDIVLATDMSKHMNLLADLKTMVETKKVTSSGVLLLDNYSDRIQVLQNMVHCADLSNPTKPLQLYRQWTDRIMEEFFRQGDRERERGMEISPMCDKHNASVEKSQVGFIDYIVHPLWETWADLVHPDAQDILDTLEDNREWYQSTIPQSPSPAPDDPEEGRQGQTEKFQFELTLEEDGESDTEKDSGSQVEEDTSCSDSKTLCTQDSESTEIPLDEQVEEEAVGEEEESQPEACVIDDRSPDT
Method in brief: as §1

T1 sequence (P27815 1-647 isoform P27815-4): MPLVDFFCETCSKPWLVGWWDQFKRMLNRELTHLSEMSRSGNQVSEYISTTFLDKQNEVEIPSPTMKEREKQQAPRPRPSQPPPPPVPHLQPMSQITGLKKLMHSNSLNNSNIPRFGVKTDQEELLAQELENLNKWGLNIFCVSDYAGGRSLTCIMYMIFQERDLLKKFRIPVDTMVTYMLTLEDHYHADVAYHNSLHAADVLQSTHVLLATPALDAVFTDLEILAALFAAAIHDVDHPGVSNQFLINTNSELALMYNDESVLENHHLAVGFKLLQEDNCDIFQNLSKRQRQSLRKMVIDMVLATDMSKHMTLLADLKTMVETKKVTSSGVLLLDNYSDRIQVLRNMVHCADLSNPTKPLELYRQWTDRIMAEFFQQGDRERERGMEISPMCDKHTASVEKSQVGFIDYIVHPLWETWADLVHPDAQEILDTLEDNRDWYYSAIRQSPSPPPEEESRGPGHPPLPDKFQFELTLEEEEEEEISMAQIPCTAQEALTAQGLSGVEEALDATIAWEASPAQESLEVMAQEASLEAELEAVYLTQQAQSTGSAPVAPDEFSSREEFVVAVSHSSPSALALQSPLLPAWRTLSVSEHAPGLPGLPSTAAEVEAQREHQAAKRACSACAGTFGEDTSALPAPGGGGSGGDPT

CCOc1nc([C@@H](CS(C)(=O)=O)n2c(=O)n(C)c3cc(-c4ccccc4OC)ccc32)ccc1OC [Ex. 144, (S)-1-(1-(6-ethoxy-5-methoxypyridin-2-yl)-2-(methylsulfonyl)ethyl)-5-(2-methoxyphenyl)-3-methyl-1H-benzo[d]imidazol-2(3H)-one]
PDE4 A1 inhibitory effect at 20 nM (PDE4A1A): +
PDE4 B1 inhibitory effect at 20 nM (PDE4B1): +
PDE4 D2 inhibitory effect at 20 nM (PDE4D2): +

CCOc1nc([C@@H](CS(C)(=O)=O)n2c(=O)n(C)c3cc(-c4ccccn4)ccc32)ccc1OC [Ex. 196, (S)-1-(1-(6-ethoxy-5-methoxypyridin-2-yl)-2-(methylsulfonyl)ethyl)-3-methyl-5-(pyridin-2-yl)-1H-benzo[d]imidazol-2(3H)-one]
PDE4 A1 inhibitory effect at 20 nM (PDE4A1A): +
PDE4 B1 inhibitory effect at 20 nM (PDE4B1): +
PDE4 D2 inhibitory effect at 20 nM (PDE4D2): +

CCOc1nc([C@@H](CS(C)(=O)=O)n2c(=O)[nH]c3cc(-c4cc(F)ccc4F)ccc32)ccc1OC [Ex. 160, (S)-5-(2,5-difluorophenyl)-1-(1-(6-ethoxy-5-methoxypyridin-2-yl)-2-(methylsulfonyl)ethyl)-1H-benzo[d]imidazol-2(3H)-one]
PDE4 A1 inhibitory effect at 20 nM (PDE4A1A): +
PDE4 B1 inhibitory effect at 20 nM (PDE4B1): +
PDE4 D2 inhibitory effect at 20 nM (PDE4D2): +

CCOc1nc([C@@H](CS(C)(=O)=O)n2c(=O)n(C3CC3)c3cc(C)ccc32)ccc1OC [Ex. 209, (S)-3-cyclopropyl-1-(1-(6-ethoxy-5-methoxypyridin-2-yl)-2-(methylsulfonyl)ethyl)-5-methyl-1H-benzo[d]imidazol-2(3H)-one]
PDE4 A1 inhibitory effect at 20 nM (PDE4A1A): +
PDE4 B1 inhibitory effect at 20 nM (PDE4B1): +
PDE4 D2 inhibitory effect at 20 nM (PDE4D2): +

CCOc1nc([C@@H](CS(C)(=O)=O)n2c(=O)n(CC(F)(F)F)c3c(C)c(-c4ccccc4)cnc32)ccc1OC [Ex. 53, (S)-3-(1-(6-ethoxy-5-methoxypyridin-2-yl)-2-(methylsulfonyl)ethyl)-7-methyl-6-phenyl-1-(2,2,2-trifluoroethyl)-1H-imidazo[4,5-b]pyridin-2(3H)-one]
PDE4 A1 inhibitory effect at 20 nM (PDE4A1A): +
PDE4 B1 inhibitory effect at 20 nM (PDE4B1): +
PDE4 D2 inhibitory effect at 20 nM (PDE4D2): +

CCOc1nc([C@@H](CS(C)(=O)=O)n2c(=O)[nH]c3c(Cc4ccccc4F)cccc32)ccc1OC [Ex. 207, (S)-1-(1-(6-ethoxy-5-methoxypyridin-2-yl)-2-(methylsulfonyl)ethyl)-4-(2-fluorobenzyl)-1H-benzo[d]imidazol-2(3H)-one]
PDE4 A1 inhibitory effect at 20 nM (PDE4A1A): +
PDE4 B1 inhibitory effect at 20 nM (PDE4B1): +
PDE4 D2 inhibitory effect at 20 nM (PDE4D2): +

CCOc1nc([C@@H](CS(C)(=O)=O)n2c(=O)n(C)c3cc(-c4ccc(C)cc4C)cnc32)ccc1OC [Ex. 100, (S)-6-(2,4-dimethylphenyl)-3-(1-(6-ethoxy-5-methoxypyridin-2-yl)-2-(methylsulfonyl)ethyl)-1-methyl-1H-imidazo[4,5-b]pyridin-2(3H)-one]
PDE4 A1 inhibitory effect at 20 nM (PDE4A1A): +
PDE4 B1 inhibitory effect at 20 nM (PDE4B1): +
PDE4 D2 inhibitory effect at 20 nM (PDE4D2): +

CCOc1nc([C@@H](CS(C)(=O)=O)n2c(=O)n(CC(F)(F)F)c3c(C)c(-c4ccccc4C)cnc32)ccc1OC [Ex. 55, (S)-3-(1-(6-ethoxy-5-methoxypyridin-2-yl)-2-(methylsulfonyl)ethyl)-7-methyl-6-(o-methylphenyl)-1-(2,2,2-trifluoroethyl)-1H-imidazo[4,5-b]pyridin-2(3H)-one]
PDE4 A1 inhibitory effect at 20 nM (PDE4A1A): +
PDE4 B1 inhibitory effect at 20 nM (PDE4B1): +
PDE4 D2 inhibitory effect at 20 nM (PDE4D2): +

CCOc1nc(C(CS(C)(=O)=O)N2C(=O)c3csc([N+](=O)[O-])c3C2=O)ccc1OC (stereo not drawn) [Ex. 221, 5-(1-(6-ethoxy-5-methoxypyridin-2-yl)-2-(methylsulfonyl)ethyl)-1-nitro-4H-thieno[3,4-c]pyrrol-4,6(5H)-dione]
PDE4 A1 inhibitory effect at 20 nM (PDE4A1A): +
PDE4 B1 inhibitory effect at 20 nM (PDE4B1): +
PDE4 D2 inhibitory effect at 20 nM (PDE4D2): +

CCOc1nc([C@@H](CS(C)(=O)=O)n2c(=O)n(C)c3cc(-c4c(F)cccc4OC)ccc32)ccc1OC [Ex. 191, (S)-5-(6-fluoro-2-methoxyphenyl)-1-(1-(6-ethoxy-5-methoxypyridin-2-yl)-2-(methylsulfonyl)ethyl)-3-methyl-1H-benzo[d]imidazol-2(3H)-one]
PDE4 A1 inhibitory effect at 20 nM (PDE4A1A): +
PDE4 B1 inhibitory effect at 20 nM (PDE4B1): +
PDE4 D2 inhibitory effect at 20 nM (PDE4D2): +

CCOc1nc([C@H](CS(C)(=O)=O)n2c(=O)[nH]c3cc(-c4ccccc4OC)ccc32)ccc1OC [Ex. 145, (R)-1-(1-(6-ethoxy-5-methoxypyridin-2-yl)-2-(methylsulfonyl)ethyl)-5-(2-methoxyphenyl)-1H-benzo[d]imidazol-2(3H)-one]
PDE4 A1 inhibitory effect at 20 nM (PDE4A1A): −
PDE4 B1 inhibitory effect at 20 nM (PDE4B1): −
PDE4 D2 inhibitory effect at 20 nM (PDE4D2): −

CCOc1nc([C@@H](CS(C)(=O)=O)n2c(=O)n(CC)c3cc(-c4ccccn4)ccc32)ccc1OC [Ex. 197, (S)-1-(1-(6-ethoxy-5-methoxypyridin-2-yl)-2-(methylsulfonyl)ethyl)-3-ethyl-5-(pyridin-2-yl)-1H-benzo[d]imidazol-2(3H)-one]
PDE4 A1 inhibitory effect at 20 nM (PDE4A1A): +
PDE4 B1 inhibitory effect at 20 nM (PDE4B1): +
PDE4 D2 inhibitory effect at 20 nM (PDE4D2): +

CCOc1nc([C@@H](CS(C)(=O)=O)n2c(=O)n(CC(F)F)c3c(C)c(-c4ccccc4F)cnc32)ccc1OC(C)C [Ex. 69, (S)-1-(2,2-difluoroethyl)-3-(1-(6-ethoxy-5-isopropoxypyridin-2-yl)-2-(methylsulfonyl)ethyl)-6-(2-fluorophenyl)-7-methyl-1H-imidazo[4,5-b]pyridin-2(3H)-one]
PDE4 A1 inhibitory effect at 20 nM (PDE4A1A): +
PDE4 B1 inhibitory effect at 20 nM (PDE4B1): +
PDE4 D2 inhibitory effect at 20 nM (PDE4D2): +

CCOc1nc([C@@H](CS(C)(=O)=O)n2c(=O)n(CC(F)F)c3c(C)c(-c4ccccc4C)cnc32)ccc1OC [Ex. 59, (S)-1-(2,2-difluoroethyl)-3-(1-(6-ethoxy-5-methoxypyridin-2-yl)-2-(methylsulfonyl)ethyl)-7-methyl-6-(o-methylphenyl)-1H-imidazo[4,5-b]pyridin-2(3H)-one]
PDE4 A1 inhibitory effect at 20 nM (PDE4A1A): +
PDE4 B1 inhibitory effect at 20 nM (PDE4B1): +
PDE4 D2 inhibitory effect at 20 nM (PDE4D2): +

CCOc1nc([C@@H](CS(C)(=O)=O)n2c(=O)n(C)c3cc(-c4ccccc4C(F)(F)F)cnc32)ccc1OC [Ex. 86, (S)-3-(1-(6-ethoxy-5-methoxypyridin-2-yl)-2-(methylsulfonyl)ethyl)-6-(2-(trifluoromethyl)phenyl)-1-methyl-1H-imidazo[4,5-b]pyridin-2(3H)-one]
PDE4 A1 inhibitory effect at 20 nM (PDE4A1A): +
PDE4 B1 inhibitory effect at 20 nM (PDE4B1): +
PDE4 D2 inhibitory effect at 20 nM (PDE4D2): +

CCOc1nc([C@@H](CS(C)(=O)=O)n2c(=O)n(C)c3c(C)c(-c4ccccc4C)cnc32)ccc1OC(F)F [Ex. 68, (S)-3-(1-(5-(difluoromethoxy)-6-ethoxypyridin-2-yl)-2-(methylsulfonyl)ethyl)-1,7-dimethyl-6-(o-methylphenyl)-1H-imidazo[4,5-b]pyridin-2(3H)-one]
PDE4 A1 inhibitory effect at 20 nM (PDE4A1A): +
PDE4 B1 inhibitory effect at 20 nM (PDE4B1): +
PDE4 D2 inhibitory effect at 20 nM (PDE4D2): +

CCOc1nc([C@@H](CS(C)(=O)=O)n2c(=O)[nH]c3cc(-c4cc(F)ccc4OC)cnc32)ccc1OC [Ex. 117, (S)-6-(5-fluoro-2-methoxyphenyl)-3-(1-(6-ethoxy-5-methoxypyridin-2-yl)-2-(methylsulfonyl)ethyl)-1H-imidazo[4,5-b]pyridin-2(3H)-one]
PDE4 A1 inhibitory effect at 20 nM (PDE4A1A): +
PDE4 B1 inhibitory effect at 20 nM (PDE4B1): +
PDE4 D2 inhibitory effect at 20 nM (PDE4D2): +

CCOc1nc([C@@H](CS(C)(=O)=O)n2c(=O)n(C)c3cc(-c4cc(F)c(F)cc4F)ccc32)ccc1OC [Ex. 159, (S)-5-(2,4,5-trifluorophenyl)-1-(1-(6-ethoxy-5-methoxypyridin-2-yl)-2-(methylsulfonyl)ethyl)-3-methyl-1H-benzo[d]imidazol-2(3H)-one]
PDE4 A1 inhibitory effect at 20 nM (PDE4A1A): +
PDE4 B1 inhibitory effect at 20 nM (PDE4B1): +
PDE4 D2 inhibitory effect at 20 nM (PDE4D2): +

CCOc1nc([C@H](CS(C)(=O)=O)n2c(=O)n(CC)c3c(C)c(-c4ccc(F)cc4)cnc32)ccc1OC [Ex. 49, (R)-3-(1-(6-ethoxy-5-methoxypyridin-2-yl)-2-(methylsulfonyl)ethyl)-1-ethyl-6-(4-fluorophenyl)-7-methyl-1H-imidazo[4,5-b]pyridin-2(3H)-one]
PDE4 A1 inhibitory effect at 20 nM (PDE4A1A): −
PDE4 B1 inhibitory effect at 20 nM (PDE4B1): −
PDE4 D2 inhibitory effect at 20 nM (PDE4D2): −

CCOc1nc([C@@H](CS(C)(=O)=O)n2c(=O)n(CCS(C)(=O)=O)c3cc(Br)ccc32)ccc1OC [Ex. 210, (S)-5-bromo-1-(1-(6-ethoxy-5-methoxypyridin-2-yl)-2-(methylsulfonyl)ethyl)-3-(2-(methylsulfonyl)ethyl)-1H-benzo[d]imidazol-2(3H)-one]
PDE4 A1 inhibitory effect at 20 nM (PDE4A1A): −
PDE4 B1 inhibitory effect at 20 nM (PDE4B1): −
PDE4 D2 inhibitory effect at 20 nM (PDE4D2): −

CCOc1nc([C@H](CS(C)(=O)=O)n2c(=O)[nH]c3c(C)c(-c4ccccc4)cnc32)ccc1OC(F)F [Ex. 62, (R)-3-(1-(5-(difluoromethoxy)-6-ethoxypyridin-2-yl)-2-(methylsulfonyl)ethyl)-7-methyl-6-phenyl-1H-imidazo[4,5-b]pyridin-2(3H)-one]
PDE4 A1 inhibitory effect at 20 nM (PDE4A1A): −
PDE4 B1 inhibitory effect at 20 nM (PDE4B1): −
PDE4 D2 inhibitory effect at 20 nM (PDE4D2): −

CCOc1nc([C@@H](CS(C)(=O)=O)n2c(=O)[nH]c3cc(C(=O)OC(C)C)ccc32)ccc1OC [Ex. 213, (S)-isopropyl 1-(1-(6-ethoxy-5-methoxypyridin-2-yl)-2-(methylsulfonyl)ethyl)-2-oxo-2,3-dihydro-1H-benzo[d]imidazole-5-carboxylate]
PDE4 A1 inhibitory effect at 20 nM (PDE4A1A): +
PDE4 B1 inhibitory effect at 20 nM (PDE4B1): +
PDE4 D2 inhibitory effect at 20 nM (PDE4D2): +
